Read-outs that look alike come from different tables or passages of the source.
Key:
Type in all cases: binding, sheep
Antibody 4.1 = tested on: Antibody 4.1
Protocol: (§1) The wells of an enhanced binding 96 well polystyrene microtiter plate were coated with IgG fraction of antiserum (Antibody 4.1 or antibody 4.2) raised to Immunogen 4 in separate host animals, diluted in 10mM Tris, pH8.5 (125µl/well). The appropriate antibody coating dilution was determined using standard ELISA checkerboard techniques. The plate was incubated overnight at 4°C, washed 4 times over 10 minutes with Tris buffered saline containing Tween 20 (TBST) and tapped dry.
(§2) Standard solutions of CP47,497 -C8 were prepared in TBST at 0, 2.5, 5, 10, 20, 40, 80 and 160ng/ml for Antibody 4.1, and at 0, 5, 10, 20, 40, 80, 160 and 320ng/ml for Antibody 4.2, and 50µl of each was added to the appropriate wells. 75µl of conjugate (Hapten 1-HRP - tracer 1 - see Figure 4) diluted in Tris buffer (pH 7.2) containing EDTA, D-mannitol, sucrose, thimerosal and BSA, was added to each of the wells. The appropriate dilution of conjugate was also determined using standard ELISA checkerboard techniques. The plate was incubated at 25°C for 1 hour. Excess unbound conjugate was removed by washing 6 times over a 10 minute period with TBST. 125µl of tetramethylbenzidine (TMB) substrate solution was added to each well of the plate that was then incubated for 20 minutes in the dark at room temperature. The reaction was terminated by addition of 125µl 0.2M H2SO4 to each well. The absorbance was then measured at 450nm using a microtiter plate reader.
(§3) In order to determine the specificity of the competitive ELISAs, standard solutions of a range of structurally similar compounds were prepared in TBST. Using the calibration curves generated and employing a single level of cross reactants (100ng/ml), these were used to determine the cross-reactivity of each immunoassay with these substances. The results of this study are presented in Table 2, as %B/B0, employing antisera raised against Immunogen 2b (C8), tracer 1 (C7) and (±)-CP-47,497 (C8 homologue) as standard.

Antibody 4.2 = tested on: Antibody 4.2
Protocol: as §1, §2, §3

[1] = tested on: antibodies raised against immunogen 2b; assay: Competitive ELISA cross-reactivity, for both antibodies; settings: cross reactants 100ng/ml; tracer 1 (C7); (±)-CP-47,497 (C8 homologue) as standard
Protocol: as §1, §2, §3

[2] = Cross-reactants at 100ng/ml, tracer 1 (C7), (±)-CP-47,497 (C8 homologue) as standard
[3] = standard 5 ng/ml, tracer 1 (C7)
[4] = standard 10 ng/ml, tracer 1 (C7)
[5] = standard 20 ng/ml, tracer 1 (C7)
[6] = standard 40 ng/ml, tracer 1 (C7)
[7] = standard 80 ng/ml, tracer 1 (C7)
[8] = standard 160 ng/ml, tracer 1 (C7)
[9] = standard concentration which produces 50% B/B0, tracer 1 (C7)

Molecule | %B/B0 (Antibody 4.1; [2]) | %B/B0 (Antibody 4.2; [2]) | %B/B0 [1] | other results
CCCCCCC(C)(C)c1ccc([C@@H]2C[C@H](O)CC[C@H]2CCCO)c(O)c1 (racemic) [(+-)-CP 55,940] | 93.65% | 97.34% | greater than 80% | –
CCCCCCC(C)(C)c1ccc([C@H]2CCC[C@@H](O)C2)c(O)c1 (racemic) [(±)-CP-47,497 (C7 homologue)] | 37.14% | 48.85% | less than 50% | –
CCCCCCC(C)(C)C1=CC(=O)C(C2CCCC(O)C2)=CC1=O (racemic) [(±)-CP-47,497 (C7 para quinone analogue)] | 82.66% | 89.82% | greater than 80% | –
CCCCCCCC(C)(C)c1ccc(C2CCCC(O)C2)c(O)c1 (racemic) [(±)-CP-47,497 (C8 homologue)] | 36.52% | 49.65% | less than 50% | %B/B0 (Antibody 4.1; standard 2.5 ng/ml, tracer 1 (C7)): 82%; %B/B0 (Antibody 4.1; [3]): 72%; %B/B0 (Antibody 4.1; [4]): 60%; %B/B0 (Antibody 4.1; [5]): 51%; %B/B0 (Antibody 4.1; [6]): 43%; %B/B0 (Antibody 4.1; [7]): 38%; %B/B0 (Antibody 4.1; [8]): 34%; IC50 (Antibody 4.1; [9]): 20.922 ng/mL; %B/B0 (Antibody 4.2; [3]): 88%; %B/B0 (Antibody 4.2; [4]): 82%; %B/B0 (Antibody 4.2; [5]): 72%; %B/B0 (Antibody 4.2; [6]): 63%; %B/B0 (Antibody 4.2; [7]): 52%; %B/B0 (Antibody 4.2; [8]): 44%; %B/B0 (Antibody 4.2; standard 320 ng/ml, tracer 1 (C7)): 37%; IC50 (Antibody 4.2; [9]): 95.992 ng/mL
CCCCCc1cc(O)c2c(c1)OC(C)(C)[C@@H]1CCC(C)=C[C@@H]21 [Delta 9 THC] | 96.44% | 94.09% | – | –
CCCCCCC(C)(C)c1cc(O)c2c(c1)OC(C)(C)[C@@H]1CC=C(CO)C[C@@H]21 [HU-210] | 96.01% | 92.94% | greater than 80% | –
CCCCCCC(C)(C)c1cc(O)c2c(c1)OC(C)(C)[C@H]1CC=C(CO)C[C@H]21 [HU-211 (Dexanabinol), Dexanabinol] | 96.76% | 95.84% | greater than 80% | –
CCCCCCC(C)(C)c1cc(OC)c([C@@H]2C=C(CO)[C@@H]3C[C@H]2C3(C)C)c(OC)c1 [HU-308] | 98.37% | 94.81% | – | –
(+)-CP 55,940 | – | – | greater than 80% | %B/B0 (Antibody 4.1): 95.98%; %B/B0 (Antibody 4.2): 96.91%
(-)-11-nor-9-Carboxy-delta9-THC | – | – | – | %B/B0 (Antibody 4.1): 95.23%; %B/B0 (Antibody 4.2): 94.38%
(-)-CP 55,940 | – | – | greater than 80% | %B/B0 (Antibody 4.1): 91.26%; %B/B0 (Antibody 4.2): 97.23%

— patent EP2698383B1, “Detection of synthetic Cannabinoids” (priority 2012, dated 2014)
